Source: ChEMBL document CHEMBL1641373, “Trishomocubane as a scaffold for the development of selective dopamine transporter (DAT) ligands” (Bioorg Med Chem Lett, 2011)

Tests used:
[1] = target: Sodium-dependent serotonin transporter (Homo sapiens, UniProt P31645); assay: Displacement of [3H]citalopram from human SERT expressed in HEK cells; format: cell-based, HEK293; settings: for inhibition: HEK293, concentration not given here
[2] = target: T1, Alpha-1A adrenergic receptor (Homo sapiens) (UniProt P35348); assay: Inhibition of alpha1A adrenergic receptor at 10 uM
T1 sequence (whole entry): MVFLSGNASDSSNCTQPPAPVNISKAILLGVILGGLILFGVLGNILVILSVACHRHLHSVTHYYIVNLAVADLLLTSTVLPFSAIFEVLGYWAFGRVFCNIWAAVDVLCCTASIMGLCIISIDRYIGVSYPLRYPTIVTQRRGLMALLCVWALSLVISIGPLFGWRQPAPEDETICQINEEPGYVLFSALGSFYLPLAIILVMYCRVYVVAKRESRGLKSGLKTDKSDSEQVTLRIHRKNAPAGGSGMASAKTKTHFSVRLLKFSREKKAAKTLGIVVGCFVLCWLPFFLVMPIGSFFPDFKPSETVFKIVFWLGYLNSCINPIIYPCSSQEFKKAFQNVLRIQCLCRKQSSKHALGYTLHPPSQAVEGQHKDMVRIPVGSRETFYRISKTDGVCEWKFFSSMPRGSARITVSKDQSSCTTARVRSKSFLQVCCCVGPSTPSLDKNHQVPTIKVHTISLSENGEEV

[3] = target: T2, Alpha-1D adrenergic receptor (Homo sapiens) (UniProt P25100); assay: Inhibition of Alpha-1D adrenergic receptor at 10 uM
T2 sequence (whole entry): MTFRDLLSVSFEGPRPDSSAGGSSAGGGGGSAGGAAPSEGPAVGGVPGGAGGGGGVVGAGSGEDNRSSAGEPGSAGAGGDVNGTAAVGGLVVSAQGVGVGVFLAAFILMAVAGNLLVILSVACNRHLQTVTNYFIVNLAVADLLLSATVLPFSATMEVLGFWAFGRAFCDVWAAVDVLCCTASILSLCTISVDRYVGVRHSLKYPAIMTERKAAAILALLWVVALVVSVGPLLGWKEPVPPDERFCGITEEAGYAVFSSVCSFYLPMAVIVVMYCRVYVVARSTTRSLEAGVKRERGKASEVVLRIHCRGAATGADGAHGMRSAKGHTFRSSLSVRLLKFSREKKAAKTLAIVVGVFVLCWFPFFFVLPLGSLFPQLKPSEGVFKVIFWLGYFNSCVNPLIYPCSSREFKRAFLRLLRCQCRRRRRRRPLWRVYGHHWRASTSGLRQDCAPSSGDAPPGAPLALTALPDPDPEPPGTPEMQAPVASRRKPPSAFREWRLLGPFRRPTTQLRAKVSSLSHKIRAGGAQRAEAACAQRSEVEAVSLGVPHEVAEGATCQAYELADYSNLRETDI

[4] = target: Beta-1 adrenergic receptor (Homo sapiens) (UniProt P08588); assay: Inhibition of beta1 adrenergic receptor at 10 uM
Sequence of Beta-1 adrenergic receptor (Homo sapiens) (P08588 whole entry, looked up): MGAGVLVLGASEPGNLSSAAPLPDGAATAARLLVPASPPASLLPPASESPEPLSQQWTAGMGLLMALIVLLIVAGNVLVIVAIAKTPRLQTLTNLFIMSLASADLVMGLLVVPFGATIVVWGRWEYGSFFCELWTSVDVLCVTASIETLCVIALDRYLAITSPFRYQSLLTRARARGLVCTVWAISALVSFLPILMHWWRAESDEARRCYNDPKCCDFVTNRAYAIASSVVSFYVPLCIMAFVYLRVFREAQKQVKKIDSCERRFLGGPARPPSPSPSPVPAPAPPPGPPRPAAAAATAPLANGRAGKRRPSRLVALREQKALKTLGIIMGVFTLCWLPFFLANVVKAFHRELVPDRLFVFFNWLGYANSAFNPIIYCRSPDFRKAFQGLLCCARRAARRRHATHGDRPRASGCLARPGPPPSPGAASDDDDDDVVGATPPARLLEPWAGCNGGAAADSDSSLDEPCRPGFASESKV

[5] = target: D(1A) dopamine receptor (Homo sapiens) (UniProt P21728); assay: Inhibition of dopamine D1 receptor at 10 uM
Sequence of D(1A) dopamine receptor (Homo sapiens) (P21728 whole entry): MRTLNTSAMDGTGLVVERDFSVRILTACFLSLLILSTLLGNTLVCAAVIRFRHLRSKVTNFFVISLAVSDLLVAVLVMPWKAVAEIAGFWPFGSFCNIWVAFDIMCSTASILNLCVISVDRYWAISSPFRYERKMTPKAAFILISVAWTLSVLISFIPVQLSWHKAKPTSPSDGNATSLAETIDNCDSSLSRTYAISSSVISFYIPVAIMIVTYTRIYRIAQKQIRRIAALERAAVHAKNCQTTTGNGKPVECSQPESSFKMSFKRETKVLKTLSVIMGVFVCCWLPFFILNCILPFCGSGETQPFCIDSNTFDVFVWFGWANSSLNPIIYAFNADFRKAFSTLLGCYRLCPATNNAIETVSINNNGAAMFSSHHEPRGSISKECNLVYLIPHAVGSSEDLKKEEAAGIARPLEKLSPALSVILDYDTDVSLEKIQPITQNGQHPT

[6] = target: D(2) dopamine receptor (Homo sapiens) (UniProt P14416); assay: Inhibition of dopamine D2 receptor at 10 uM
Sequence of D(2) dopamine receptor (Homo sapiens) (P14416 whole entry): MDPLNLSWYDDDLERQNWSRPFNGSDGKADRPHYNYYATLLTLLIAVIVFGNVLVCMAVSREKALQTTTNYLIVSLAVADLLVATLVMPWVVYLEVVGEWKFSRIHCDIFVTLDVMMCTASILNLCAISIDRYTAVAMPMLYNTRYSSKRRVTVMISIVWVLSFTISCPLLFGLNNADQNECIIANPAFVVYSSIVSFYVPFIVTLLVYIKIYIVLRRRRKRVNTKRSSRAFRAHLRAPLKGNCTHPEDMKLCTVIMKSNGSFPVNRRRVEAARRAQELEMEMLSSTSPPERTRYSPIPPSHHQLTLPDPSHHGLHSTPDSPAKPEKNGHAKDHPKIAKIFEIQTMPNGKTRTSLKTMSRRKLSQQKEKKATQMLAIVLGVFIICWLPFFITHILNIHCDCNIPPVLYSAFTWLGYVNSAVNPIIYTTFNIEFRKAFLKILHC

[7] = target: Histamine H4 receptor (Homo sapiens) (UniProt Q9H3N8); assay: Inhibition of H4 receptor at 10 uM
Sequence of Histamine H4 receptor (Homo sapiens) (Q9H3N8 whole entry): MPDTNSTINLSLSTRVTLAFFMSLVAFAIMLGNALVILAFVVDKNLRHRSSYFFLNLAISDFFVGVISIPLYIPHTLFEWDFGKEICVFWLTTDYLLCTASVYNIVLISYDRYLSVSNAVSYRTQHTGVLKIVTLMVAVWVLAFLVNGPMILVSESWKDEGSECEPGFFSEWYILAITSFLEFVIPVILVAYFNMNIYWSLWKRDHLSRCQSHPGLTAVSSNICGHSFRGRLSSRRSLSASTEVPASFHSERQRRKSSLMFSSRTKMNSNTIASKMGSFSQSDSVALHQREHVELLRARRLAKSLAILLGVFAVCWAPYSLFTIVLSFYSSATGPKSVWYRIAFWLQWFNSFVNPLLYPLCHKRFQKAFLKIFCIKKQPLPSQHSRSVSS

[8] = target: 5-hydroxytryptamine receptor 1B (Homo sapiens) (UniProt P28222); assay: Inhibition of 5HT1B receptor at 10 uM
Sequence of 5-hydroxytryptamine receptor 1B (Homo sapiens) (P28222 whole entry): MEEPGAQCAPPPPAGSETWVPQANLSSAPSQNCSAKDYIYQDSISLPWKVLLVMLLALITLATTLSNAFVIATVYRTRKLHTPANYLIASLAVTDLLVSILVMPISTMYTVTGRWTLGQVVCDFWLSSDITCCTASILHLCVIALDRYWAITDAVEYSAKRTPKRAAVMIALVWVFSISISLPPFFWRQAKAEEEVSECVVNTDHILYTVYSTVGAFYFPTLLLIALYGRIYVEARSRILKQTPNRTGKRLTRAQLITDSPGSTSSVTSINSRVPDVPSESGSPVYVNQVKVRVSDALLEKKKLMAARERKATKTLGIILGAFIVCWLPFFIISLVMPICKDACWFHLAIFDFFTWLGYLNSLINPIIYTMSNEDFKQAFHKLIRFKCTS

[9] = target: T3, 5-hydroxytryptamine receptor 2C (Homo sapiens) (UniProt P28335); assay: Inhibition of 5HT2C receptor at 10 uM
T3 sequence (whole entry): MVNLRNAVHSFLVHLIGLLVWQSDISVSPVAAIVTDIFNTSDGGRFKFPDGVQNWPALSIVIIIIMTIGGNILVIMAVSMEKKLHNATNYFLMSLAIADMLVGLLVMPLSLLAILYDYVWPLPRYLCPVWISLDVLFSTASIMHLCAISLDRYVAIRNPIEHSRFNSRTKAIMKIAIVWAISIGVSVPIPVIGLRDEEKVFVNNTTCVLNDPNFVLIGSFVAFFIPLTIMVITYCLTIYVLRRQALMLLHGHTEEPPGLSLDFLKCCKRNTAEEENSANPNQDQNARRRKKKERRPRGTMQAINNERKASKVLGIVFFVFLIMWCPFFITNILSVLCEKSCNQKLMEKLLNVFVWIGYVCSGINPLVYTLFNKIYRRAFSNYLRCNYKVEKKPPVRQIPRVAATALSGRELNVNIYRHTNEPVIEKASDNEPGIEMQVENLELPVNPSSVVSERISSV

[10] = target: T4, 5-hydroxytryptamine receptor 3A (Homo sapiens) (UniProt P46098); assay: Inhibition of 5HT3 receptor at 10 uM
T4 sequence (whole entry): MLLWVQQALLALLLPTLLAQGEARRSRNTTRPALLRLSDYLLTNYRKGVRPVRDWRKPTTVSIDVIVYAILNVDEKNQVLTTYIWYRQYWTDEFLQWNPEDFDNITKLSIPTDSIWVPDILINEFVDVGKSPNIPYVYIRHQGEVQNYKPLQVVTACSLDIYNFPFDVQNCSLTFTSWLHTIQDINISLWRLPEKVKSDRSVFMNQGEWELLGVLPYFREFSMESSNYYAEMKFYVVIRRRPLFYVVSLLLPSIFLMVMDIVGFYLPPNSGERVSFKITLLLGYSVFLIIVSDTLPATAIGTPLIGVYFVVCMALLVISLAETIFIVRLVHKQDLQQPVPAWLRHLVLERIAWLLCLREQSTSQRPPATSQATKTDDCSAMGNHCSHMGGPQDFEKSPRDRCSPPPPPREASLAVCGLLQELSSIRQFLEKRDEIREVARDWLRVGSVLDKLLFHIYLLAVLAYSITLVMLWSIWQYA

[11] = target: 5-hydroxytryptamine receptor 7 (Homo sapiens) (UniProt P34969); assay: Inhibition of 5HT7 receptor at 10 uM
Sequence of 5-hydroxytryptamine receptor 7 (Homo sapiens) (P34969 whole entry): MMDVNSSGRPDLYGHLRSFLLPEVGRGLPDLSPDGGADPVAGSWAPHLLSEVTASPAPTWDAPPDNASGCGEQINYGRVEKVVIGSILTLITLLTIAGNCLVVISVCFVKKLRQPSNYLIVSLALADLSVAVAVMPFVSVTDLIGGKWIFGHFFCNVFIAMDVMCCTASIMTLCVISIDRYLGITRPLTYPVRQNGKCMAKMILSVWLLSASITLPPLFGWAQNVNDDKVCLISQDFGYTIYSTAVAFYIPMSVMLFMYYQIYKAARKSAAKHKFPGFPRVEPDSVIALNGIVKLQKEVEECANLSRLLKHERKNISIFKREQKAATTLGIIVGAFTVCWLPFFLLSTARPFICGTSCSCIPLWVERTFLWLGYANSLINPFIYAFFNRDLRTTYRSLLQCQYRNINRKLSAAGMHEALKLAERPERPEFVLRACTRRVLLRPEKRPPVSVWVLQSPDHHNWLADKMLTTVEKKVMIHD

[12] = target: T5, Muscarinic acetylcholine receptor M1 (Homo sapiens) (UniProt P11229); assay: Inhibition of muscarinic M1 receptor at 10 uM
T5 sequence (whole entry): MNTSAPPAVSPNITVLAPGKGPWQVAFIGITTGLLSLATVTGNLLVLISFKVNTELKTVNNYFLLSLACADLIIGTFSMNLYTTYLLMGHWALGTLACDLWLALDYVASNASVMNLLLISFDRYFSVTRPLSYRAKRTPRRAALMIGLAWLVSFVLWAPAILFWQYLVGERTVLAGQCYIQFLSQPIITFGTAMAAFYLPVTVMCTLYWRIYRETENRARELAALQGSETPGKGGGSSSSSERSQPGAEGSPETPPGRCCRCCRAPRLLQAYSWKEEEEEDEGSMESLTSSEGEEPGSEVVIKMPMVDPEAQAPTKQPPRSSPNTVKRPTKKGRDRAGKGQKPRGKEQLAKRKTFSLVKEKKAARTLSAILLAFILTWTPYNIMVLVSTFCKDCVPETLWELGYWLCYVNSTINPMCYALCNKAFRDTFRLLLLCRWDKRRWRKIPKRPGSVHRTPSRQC

[13] = target: Delta-type opioid receptor (Homo sapiens) (UniProt P41143); assay: Inhibition of delta opioid receptor at 10 uM
Sequence of Delta-type opioid receptor (Homo sapiens) (P41143 whole entry): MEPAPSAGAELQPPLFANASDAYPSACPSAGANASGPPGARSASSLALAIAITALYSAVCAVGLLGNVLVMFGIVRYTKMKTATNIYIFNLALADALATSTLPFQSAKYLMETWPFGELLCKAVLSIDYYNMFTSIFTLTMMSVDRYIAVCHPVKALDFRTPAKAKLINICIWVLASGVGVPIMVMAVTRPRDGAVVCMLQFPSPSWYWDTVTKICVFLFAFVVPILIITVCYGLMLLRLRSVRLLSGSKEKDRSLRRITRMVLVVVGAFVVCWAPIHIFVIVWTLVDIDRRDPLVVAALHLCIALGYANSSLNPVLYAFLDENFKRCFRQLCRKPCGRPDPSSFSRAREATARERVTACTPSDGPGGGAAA

Fc1cccc(CCN[C@H]2C3C4CC5C6C4CC3C6C52)c1 (some centres not stated)
Ki [1]: > 10 µM
inhibition [2]: < 50%
inhibition [3]: < 50%
inhibition [4]: < 50%
inhibition [5]: < 50%
inhibition [6]: < 50%
inhibition [7]: < 50%
inhibition [8]: < 50%
inhibition [9]: < 50%
inhibition [10]: < 50%
inhibition [11]: < 50%
inhibition [12]: < 50%
inhibition [13]: < 50%

CN(CCc1cccc(F)c1)[C@H]1C2C3CC4C5C3CC2C5C41 (some centres not stated)
inhibition [1]: < 50%
inhibition [2]: < 50%
inhibition [3]: < 50%
inhibition [4]: < 50%
inhibition [5]: < 50%
inhibition [6]: < 50%
inhibition [7]: < 50%
inhibition [8]: < 50%
inhibition [9]: < 50%
inhibition [10]: < 50%
inhibition [11]: < 50%
inhibition [12]: < 50%
inhibition [13]: < 50%

CN(Cc1cccc(F)c1)[C@H]1C2C3CC4C5C3CC2C5C41 (some centres not stated)
inhibition [1]: < 50%
inhibition [2]: < 50%
inhibition [3]: < 50%
inhibition [4]: < 50%
inhibition [5]: < 50%
inhibition [6]: < 50%
inhibition [7]: < 50%
inhibition [8]: < 50%
inhibition [9]: < 50%
inhibition [10]: < 50%
inhibition [11]: < 50%
inhibition [12]: < 50%
inhibition [13]: < 50%

Fc1cccc(CN[C@H]2C3C4CC5C6C4CC3C6C52)c1 (some centres not stated)
Ki [1]: > 10 µM
inhibition [2]: < 50%
inhibition [3]: < 50%
inhibition [4]: < 50%
inhibition [5]: < 50%
inhibition [6]: < 50%
inhibition [7]: < 50%
inhibition [8]: < 50%
inhibition [9]: < 50%
inhibition [10]: < 50%
inhibition [11]: < 50%
inhibition [12]: < 50%
inhibition [13]: < 50%
